tested on: not listed separately; assay: Apparent permeability in pig LLC-PK1 cells by LC-MS/MS analysis; assay type: ADME, cell-based, Sus scrofa

Point of comparison: C[C@@]1(c2cc(NC(=O)c3ccc(C#N)cn3)ccc2F)C=CSC(N)=N1 [ATABECESTAT], Papp 23 ×10⁻⁶ cm/s. Against it:
- C[C@@]1(c2cc(-c3cncnc3)c(F)cc2F)CCSC(N)=N1 [LY-2811376] — within 1.5-fold, 33 ×10⁻⁶ cm/s

target: Beta-secretase 1 (Homo sapiens, UniProt P56817); assay: Inhibition of BACE1 (unknown origin) by HTRF assay
Sequence (P56817 whole entry): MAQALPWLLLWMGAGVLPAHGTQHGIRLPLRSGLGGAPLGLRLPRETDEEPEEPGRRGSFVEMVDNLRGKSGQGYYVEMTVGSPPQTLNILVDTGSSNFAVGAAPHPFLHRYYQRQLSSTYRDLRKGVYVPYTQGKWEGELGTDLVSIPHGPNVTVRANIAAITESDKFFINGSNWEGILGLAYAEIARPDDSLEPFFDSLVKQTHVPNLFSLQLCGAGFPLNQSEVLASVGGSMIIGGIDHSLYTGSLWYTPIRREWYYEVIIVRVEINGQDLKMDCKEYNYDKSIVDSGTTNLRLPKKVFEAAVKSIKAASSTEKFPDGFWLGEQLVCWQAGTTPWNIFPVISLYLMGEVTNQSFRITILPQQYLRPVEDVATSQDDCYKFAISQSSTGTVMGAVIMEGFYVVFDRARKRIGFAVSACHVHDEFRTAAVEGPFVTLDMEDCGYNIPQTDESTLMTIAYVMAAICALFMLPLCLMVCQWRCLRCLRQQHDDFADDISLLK

Point of comparison: COc1cnc(C(=O)Nc2ccc(F)c([C@]3(C)C=C(CF)OC(N)=N3)c2)nc1, IC50 241 nM. Against it:
- C[C@@]1(c2cc(NC(=O)c3ncc(C#N)cc3F)ccc2F)C=C(CF)OC(N)=N1 — 1.6-fold lower, 155 nM
- COc1cnc(C(=O)Nc2ccc(F)c([C@]3(C)C=C(CF)OC(N)=N3)c2)c(C)n1 — 2-fold higher, 491 nM
- C[C@@]1(c2cc(NC(=O)c3ccn(C(F)F)n3)ccc2F)C=C(CF)OC(N)=N1 — 2.9-fold lower, 82.3 nM
